# Laboratory results reported in patent US20240379187A1, “SYSTEMS AND METHODS FOR OMICS-BASED ANALYSIS OF GENE EXPRESSION” (priority 2023, published 2024).
# Experiments:
# C. difficile [1] = experiment: CAT-GxD re-analysis of public C. difficile gene expression datasets (heatmap, PCA, STRING network, KEGG PTS pathway overlay) after DCA or succinate exposure; type: cell-based, Clostridioides difficile; settings: for most of the Glc family phosphorylation and L-ascorbate phosphorylation (KEGG PTS pathway): unchanged in Δsig54
# Source text: Typically, specific gene expression datasets and protein quantitation datasets for the selected target organism are collected and made available. In an exemplary form, C. difficile-specific gene expression datasets and protein quantitation datasets were collected from GEO database and ProteomeXchange databases, respectively. An SQL database was generated using RSQlite (version 2.3.4) (25) to incorporate the 56 nonredundant GEO transcriptomics datasets and 8 quantitative proteomic datasets. GEO subseries datasets already available in their respective superseries dataset were excluded. Quantitative total proteomic datasets were included; those focused on post-translational modification studies were excluded. To integrate and normalize the datasets, gene IDs were matched to the Ensembl stable IDs of the widely accepted C. difficile 630 reference strain using BLASTp, using protein identity and gene position comparisons and given the NCBI format CD630. Pre-computed log2 ratios without any gene duplication were imported as is. Studies with replicate log2 ratios assigned for a gene ID (common in microarray experiments due to replicate spots) were solved by computing the median log2 ratio. Two-channel microarray experiments with duplicate ratios assigned to a gene were solved by computing the average of the complementary ratios then log2 transformed. Reads Per Kilobase Million (RPKM) of raw RNASeq data were computed. For datasets without any computed ratios, log2 ratios were calculated for each treatment vs. control, and median normalization was performed. Gene classifications (described in Input and Data Filtering) were compiled to provide a comprehensive and robust search.
# To glean additional insight into the interactions between the remaining 26 genes, the analysis was transitioned to the STRING database by clicking on the STRING icon at the top left of the page (expression information, however, will not ‘carry over’). […] The least number of nodes with the higher network association scores were selected to bridge the clusters. […] Next, the 5 bridging nodes and rpoN/sigL/sig54 were added to the 26 gene set and re-entered in the CAT-GXD's ‘Search’ bar. […] In order to link the separate networks, the 26 genes were sent to the STRING database by clicking on the STRING icon.
# In the pathway tab in CAT-GxD, gene expression data for specific conditions can be overlaid on selected KEGG pathways.
# C. difficile [2] = settings: cited from earlier work
# C. difficile [3] = settings: cited from earlier work; remark: listed apart in the source
# [4] = C. difficile exposed to 240 μM DCA for 48 hours
# [5] = DCA exposure, compared with succinate exposure
# [6] = C. difficile exposed to 80 mM succinate for 24 hours
# [7] = C. difficile treated with 80 mM succinate for 24 hours
Structure (SMILES),SigL/Sig54/RpoN expression (C. difficile [1]; [4]),expression of central bridging node pheA (C. difficile [1]; [4]),genes of cluster [2] downregulated (C. difficile [1]; [4]),number of the 27 Δsig54 downregulated genes also downregulated (C. difficile [1]; [4]),"bridging nodes downregulated (C. difficile [1]; C. difficile exposed to 240 μM DCA for 48 hours, bridging nodes ptsH, pheA, pfo, CD3092, CD3640)","expression of cluster [2] bridging node ptsH (C. difficile [1]; DCA exposure (240 μM, 48 hours))",mannitol (mtlF) phosphorylation (KEGG PTS pathway) (C. difficile [1]; [5]),sorbitol phosphorylation (KEGG PTS pathway) (C. difficile [1]; [5]),"most of the Glc family phosphorylation and L-ascorbate phosphorylation (KEGG PTS pathway) (C. difficile [1]; DCA ratio (240 μM, 48 hrs))",biofilm formation in C. difficile (C. difficile [2]),expression of bridging node pfo of clusters [1] and [3] (C. difficile [1]; [6]),expression of central bridging node pheA (C. difficile [1]; [6]),expression of cluster [2] bridging node ptsH (C. difficile [1]; [6]),SigL expression (C. difficile [1]; [7]),genes (clusters [1] and [3]) displaying contrasting expression patterns relative to Δsig54 (C. difficile [1]; [7]),genes (of the 10 of cluster [2]) with similar downregulation patterns as with Sig54 loss (C. difficile [1]; [7]),"cellobiose, fructoselysine and sorbitol phosphorylation (KEGG PTS pathway) (C. difficile [1]; succinate exposure, compared with DCA exposure)",most of the Glc family phosphorylation and L-ascorbate phosphorylation (KEGG PTS pathway) (C. difficile [1]; succinate ratio (24 hrs biofilm)),mtlF expression in succinate induced biofilms (C. difficile [3]),biofilm thickness compared with DCA-induced biofilm (C. difficile [2]; succinate versus DCA)
C[C@H](CCC(=O)O)[C@H]1CC[C@H]2[C@@H]3CC[C@@H]4C[C@H](O)CC[C@]4(C)[C@H]3C[C@H](O)[C@]12C [DCA],downregulated,upregulated,3 of 10,19 of the 27,4 of the 5,downregulated,increased,decreased,downregulated,induce biofilm formation,,,,,,,,,,
O=C(O)CCC(=O)O [succinate],,,,,,,,,,induce biofilm formation,upregulated,upregulated,downregulated,upregulation,13 of 27,7 of the 10,increased,downregulated,downregulation,significantly thicker biofilm
